{"source": "paper PMC10955468", "about": "(Frontiers in Pharmacology, 2024)", "key": {"TMEM206 (PAORAC/ASOR) [1]": {"molecular_target": "T1, TMEM206 (PAORAC/ASOR) (Homo sapiens, UniProt Q9H813)", "T1 construct": "gene PACC1; native full-length channel in HCT116 cells (whole-cell patch clamp); homo-trimer; current absent in TMEM206 knockout clones", "T1 sequence (Q9H813 whole entry)": "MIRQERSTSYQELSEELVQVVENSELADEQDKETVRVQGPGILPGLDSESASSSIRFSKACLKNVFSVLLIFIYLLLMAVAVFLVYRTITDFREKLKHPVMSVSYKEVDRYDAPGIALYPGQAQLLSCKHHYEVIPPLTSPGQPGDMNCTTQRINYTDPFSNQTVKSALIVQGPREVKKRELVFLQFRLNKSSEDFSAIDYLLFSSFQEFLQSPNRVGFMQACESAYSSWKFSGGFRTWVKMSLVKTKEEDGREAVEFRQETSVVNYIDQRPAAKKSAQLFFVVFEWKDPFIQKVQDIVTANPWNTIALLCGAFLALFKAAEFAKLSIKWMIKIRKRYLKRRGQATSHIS", "experiment": "whole-cell patch clamp, HCT116", "format": "cell-based", "conditions": "HCT-116; read-out: % residual current at 100 μM"}, "TMEM206 (PAORAC/ASOR) [2]": {"molecular_target": "T1, TMEM206 (PAORAC/ASOR)", "experiment": "whole-cell patch clamp, HCT116", "format": "cell-based", "conditions": "HCT-116, read-out: % inhibition at 100 μM"}}, "data": [{"smiles": "Cc1cc(Cl)ccc1OC(C)C(=O)Nc1cc(Cl)ccc1C(=O)O", "note": "(stereo not drawn) [LBA, 4-chloro-2-(2-(4-chloro-2-methylphenoxy)propanamido)benzoic acid]", "values": [{"measurement": "remaining activity at 100 µM", "setting": "TMEM206 (PAORAC/ASOR) [1]", "result": 53, "unit": "%"}]}, {"smiles": "O=C(O)c1ccccc1Nc1cccc(C(F)(F)F)c1", "note": "[flufenamic acid]", "values": [{"measurement": "inhibition at 100 µM", "setting": "TMEM206 (PAORAC/ASOR) [2]", "result": 28, "unit": "%"}]}, {"smiles": "O=C(O)c1cccnc1Nc1cccc(C(F)(F)F)c1", "note": "[niflumic acid]", "values": [{"measurement": "remaining activity at 100 µM", "setting": "TMEM206 (PAORAC/ASOR) [1]", "result": 38, "unit": "%"}]}]}
